Test results from patent US6872725B2, “Solid-state forms of N-(2-hydroxyacetyl)-5-(4-piperidyl)-4-(4-pyrimidinyl)-3-(4-chlorophenyl) pyrazole” (Pharmacia Corporation, priority 2001, dated 2005).

Key:
[1] = physical stability of solid-state forms at ambient temperatures; format: physicochemical; details: compared with the other solid-state forms of Compound 1
Source text: In one embodiment, the invention comprises the Form I polymorph of Compound 1. […] Similarly, selection of a solid-state form of Compound 1 that is physically stable over a wide range of storage conditions (especially considering the different possible storage conditions that can occur during the lifetime of a Compound 1 product) can help avoid polymorphic or other degradative changes in the Compound 1 that can lead to product loss or deterioration of product efficacy.

[2] = slurry conversion of dihydrate crystals to Form I polymorph in tetrahydrofuran/water; format: physicochemical; details: 80:20 tetrahydrofuran/water mixture (volume basis), 25° C.
Experimental: The dihydrate crystalline form of Compound 1 also can be prepared, for example, by slurry conversion of the Form II polymorph in a tetrahydrofuran/water mixture. A sufficient amount of the Form II polymorph is added to an 80:20 tetrahydrofuran/water mixture (volume basis) to form a saturated solution at 25° C. The solution then spontaneously desaturates by precipitating dihydrate crystals. Once precipitated, the dihydrate crystals eventually convert to the more thermodynamically stable Form I polymorph.

SMILES	physical stability at ambient temperatures [1]	time before conversion to the more thermodynamically stable Form I polymorph [2]
O=C(CO)N1CCC(c2[nH]nc(-c3ccc(Cl)cc3)c2-c2ccncn2)CC1 [Form I polymorph, N-(2-hydroxyacetyl)-5-(4-piperidyl)-4-(4-pyrimidinyl)-3-(4-chlorophenyl)pyrazole]	greater physical stability at ambient temperatures than the other solid-state forms of Compound 1	
O=C(CO)n1nc(-c2ccc(Cl)cc2)c(-c2ccncn2)c1C1CCNCC1 [dihydrate crystalline form, N-(2-hydroxyacetyl)-5-(4-piperidyl)-4-(4-pyrimidinyl)-3-(4-chlorophenyl)pyrazole]		does not take place for about four days
